According to PMC11219871, “Epigenetic-based differentiation therapy for Acute Myeloid Leukemia” (Nature Communications, 2024):
Values joined by “and” are separate entries in the source; they are usually repeats but may differ in a detail not shown here. Identical values can stand only once.

What was measured:
[1] = test system: HL-60, ML-2, MOLM-13 and MV4-11; experiment: γ-H2AX immunofluorescence (DNA damage); format: cell-based; settings: daily treatment 48 hours, four AML cell lines
Procedure: authors should analyze this e.g by gH2AX immunofluorescence staining.
As positive control, HL-60 cells irradiated with an acute dose of 30 J/m2 UV for 2 minutes were
(see Reviewer Figure 22).

[2] = test system: global 5-methylcytosine levels in HL-60, ML-2, MV4-11 and MOLM-13 cell lines; experiment: Dot blot; format: cell-based, human; settings: HL-60, 270 nM CM-444 or 300 nM CM-1758, 48 h
Procedure: DNA purity and concentration were measured using a NanoDrop spectrophotometer (Thermo Scientific). A 500 ng amount of genomic DNA was loaded onto a nitrocellulose membrane (Amersham Hybond_N+, RPN203B, GE Healthcare), pre-wetted in 6X SSC for 10 min, using the Bio-Dot microfiltration apparatus (Cat No 170-6545, Bio-Rad) following the manufacturer’s instructions. Next, the membrane was incubated with 2X SSC for 5 min and cross-linked for 2 h at 80 °C. The membrane, after being blocked with Tropix I-block blocking reagent (Cat No AI300, Tropix) in PBS with 0.1% Tween 20 and 0.02 NaN3, was incubated with the primary antibody against 5-methylcytosine (monoclonal antibody 5-methylcytidine, Cat No BI-MECY-1000, Eurogentec) diluted 1:4000 o/n at 4 °C and then with alkaline phosphatase-conjugated secondary antibody. […] To ensure equal loading of total DNA on the membrane, the same blot was stained with 0.02% methylene blue in 0.3 M sodium acetate (pH 5.2).

[3] = test system: MV4-11 i.v. in BALB/cA Rag2-/-γc-/- mice; experiment: Intravenous xenograft model (survival, CD11b in blood, body weight); format: in vivo, mouse; settings: for body weight of mice: intravenous MV4-11 AML mouse model, individual mice
Procedure: (§1) The human AML MV4-11 and MOLM-13 xenograft mice models were generated by intravenous (i.v.) injection of 10 × 10^6 (MV4-11) or 1 × 10^4 (MOLM-13) cells diluted in 100 µL of saline solution in the tail vein of a 6-8-week-old female BALB/cA Rag2^−/−γc^−/− mice (n = 10). Treatment started 7 or 1 day after MV4-11 or MOLM-13 cells injection, respectively. MV4-11 and MOLM-13 mice were treated with i.p. 10 mg/kg of CM-444 and CM-1758 during 5 consecutive days followed by 2 resting days for 7 and 2 weeks, respectively. The control group received only 80% saline solution, 10% DMSO and 10% Tween 20 (diluents of CM-444 and CM-1758). The mice weight was controlled and remained stable during the treatment. Statistical results were calculated using the statistical software Medcalc. CD11b levels in blood samples from an intravenous MV4-11 mice model were measured by flow cytometry, as described above.

[4] = test system: MOLM-13 i.v. in BALB/cA Rag2-/-γc-/- mice; experiment: as above; format: in vivo, mouse; settings: for Body weight: intravenous MOLM-13 AML mouse model, individual mice
Procedure: as §1

[5] = biological target: T1, HDAC10 (Homo sapiens, UniProt Q969S8); experiment: HDAC assay (Eurofins); format: biochemical
T1 construct: purchased Eurofins (contracted assay service)
T1 sequence (Q969S8 1-669): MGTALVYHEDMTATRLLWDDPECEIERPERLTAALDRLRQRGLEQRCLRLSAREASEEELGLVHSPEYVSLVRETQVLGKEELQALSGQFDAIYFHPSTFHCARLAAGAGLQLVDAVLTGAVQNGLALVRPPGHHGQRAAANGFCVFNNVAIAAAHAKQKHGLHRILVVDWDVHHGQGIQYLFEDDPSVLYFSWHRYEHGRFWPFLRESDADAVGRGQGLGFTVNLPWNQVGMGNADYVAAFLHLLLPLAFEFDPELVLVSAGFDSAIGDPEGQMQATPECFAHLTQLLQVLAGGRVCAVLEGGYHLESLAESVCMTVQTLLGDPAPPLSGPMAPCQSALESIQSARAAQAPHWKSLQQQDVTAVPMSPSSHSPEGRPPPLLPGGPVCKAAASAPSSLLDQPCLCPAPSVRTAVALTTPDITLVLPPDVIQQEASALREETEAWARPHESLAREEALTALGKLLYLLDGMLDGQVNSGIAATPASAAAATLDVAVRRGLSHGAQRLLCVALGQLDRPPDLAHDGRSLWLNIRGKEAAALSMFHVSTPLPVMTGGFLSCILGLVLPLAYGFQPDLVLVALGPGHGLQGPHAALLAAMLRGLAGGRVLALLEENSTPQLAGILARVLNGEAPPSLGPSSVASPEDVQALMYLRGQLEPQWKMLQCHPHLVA

[6] = biological target: T2, HDAC5 (Homo sapiens, UniProt Q9UQL6); experiment: HDAC assay (Eurofins); format: biochemical
T2 construct: purchased Eurofins (contracted assay service)

[7] = Cytotoxicity (LC50); format: cell-based; settings: human, PBMCs from healthy donors, 72-h exposure
[8] = biological target: T3, hERG potassium channels (Homo sapiens, UniProt Q12809); experiment: hERG blockade assay (whole-cell patch clamp, CHO cells); format: cell-based
T3 construct: host or cells: CHO cells
Procedure: This study was conducted at Wuxi (http://www.wuxi.com/), using CHO cells with stable expression of hERG potassium channels (Sophion Biosciences, Ballerup, Denmark). Cells were cultured (F12 medium, supplemented with 10% FBS, 1% Geneticin® selective antibiotic, 89 μg/mL hygromycin B) in a humidified and air-controlled (5% CO2) incubator at 37 °C ± 2 °C. Test compounds were diluted at different concentrations (0.3 μM–30μM), with a final DMSO concentration in an extracellular solution of <0.3%. The external solution consisted of 2 mM CaCl2, 1 mM MgCl2, 4 mM KCl, 145 mM NaCl, 10 mM glucose and 10 mM HEPES at pH 7.3–7.4. The internal solution consisted of 5.37 mM CaCl2, 1.75 mM MgCl2, 120 mM KCl, 10 mM HEPES, 5 mM EGTA and 4 mM Na2ATP at pH 7.2–7.3. The assay was performed at room temperature using the whole-cell patch clamp techniques controlled with Patchmaster Pro software. For quality control, minimum seal membrane resistance was set at 500 MOhms and the minimum/maximum specific hERG current (pre-compound) was 400 pA/3000 pA. A 100-nM amount of cisapride was used as the positive control to evaluate the reliability of the test system. Results are the average of two biological replicates.

T3 sequence (Q12809 whole entry): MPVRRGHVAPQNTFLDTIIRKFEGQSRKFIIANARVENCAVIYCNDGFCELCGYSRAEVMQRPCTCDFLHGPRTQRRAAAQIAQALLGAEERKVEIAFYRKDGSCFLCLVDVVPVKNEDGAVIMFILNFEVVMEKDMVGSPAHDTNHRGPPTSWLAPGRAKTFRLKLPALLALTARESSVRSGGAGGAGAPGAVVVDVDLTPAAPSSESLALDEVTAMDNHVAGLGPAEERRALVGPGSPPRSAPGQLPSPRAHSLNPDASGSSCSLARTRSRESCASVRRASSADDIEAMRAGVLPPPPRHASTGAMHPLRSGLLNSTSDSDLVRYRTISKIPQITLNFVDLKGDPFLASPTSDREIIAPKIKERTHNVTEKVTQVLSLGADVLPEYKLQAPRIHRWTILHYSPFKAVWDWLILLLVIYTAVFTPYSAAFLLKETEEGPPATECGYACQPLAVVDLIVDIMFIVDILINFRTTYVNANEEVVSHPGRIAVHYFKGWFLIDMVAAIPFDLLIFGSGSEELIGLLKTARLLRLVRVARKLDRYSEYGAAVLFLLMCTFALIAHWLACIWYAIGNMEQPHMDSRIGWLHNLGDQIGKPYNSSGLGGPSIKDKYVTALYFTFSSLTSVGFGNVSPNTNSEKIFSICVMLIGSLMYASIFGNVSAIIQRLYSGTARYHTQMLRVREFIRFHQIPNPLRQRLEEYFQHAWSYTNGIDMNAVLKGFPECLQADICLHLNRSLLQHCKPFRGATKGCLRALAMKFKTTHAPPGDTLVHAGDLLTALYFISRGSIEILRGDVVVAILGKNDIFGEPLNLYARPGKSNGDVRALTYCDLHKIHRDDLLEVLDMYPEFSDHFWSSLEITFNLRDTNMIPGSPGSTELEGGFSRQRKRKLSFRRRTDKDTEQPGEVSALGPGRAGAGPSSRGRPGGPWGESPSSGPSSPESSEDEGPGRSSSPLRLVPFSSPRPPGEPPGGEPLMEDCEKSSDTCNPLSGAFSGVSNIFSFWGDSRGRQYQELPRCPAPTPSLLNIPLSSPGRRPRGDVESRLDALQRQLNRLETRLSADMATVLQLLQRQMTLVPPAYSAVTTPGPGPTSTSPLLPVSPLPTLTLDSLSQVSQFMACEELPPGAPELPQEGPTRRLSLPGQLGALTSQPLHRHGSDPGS
T2 sequence (Q9UQL6 whole entry): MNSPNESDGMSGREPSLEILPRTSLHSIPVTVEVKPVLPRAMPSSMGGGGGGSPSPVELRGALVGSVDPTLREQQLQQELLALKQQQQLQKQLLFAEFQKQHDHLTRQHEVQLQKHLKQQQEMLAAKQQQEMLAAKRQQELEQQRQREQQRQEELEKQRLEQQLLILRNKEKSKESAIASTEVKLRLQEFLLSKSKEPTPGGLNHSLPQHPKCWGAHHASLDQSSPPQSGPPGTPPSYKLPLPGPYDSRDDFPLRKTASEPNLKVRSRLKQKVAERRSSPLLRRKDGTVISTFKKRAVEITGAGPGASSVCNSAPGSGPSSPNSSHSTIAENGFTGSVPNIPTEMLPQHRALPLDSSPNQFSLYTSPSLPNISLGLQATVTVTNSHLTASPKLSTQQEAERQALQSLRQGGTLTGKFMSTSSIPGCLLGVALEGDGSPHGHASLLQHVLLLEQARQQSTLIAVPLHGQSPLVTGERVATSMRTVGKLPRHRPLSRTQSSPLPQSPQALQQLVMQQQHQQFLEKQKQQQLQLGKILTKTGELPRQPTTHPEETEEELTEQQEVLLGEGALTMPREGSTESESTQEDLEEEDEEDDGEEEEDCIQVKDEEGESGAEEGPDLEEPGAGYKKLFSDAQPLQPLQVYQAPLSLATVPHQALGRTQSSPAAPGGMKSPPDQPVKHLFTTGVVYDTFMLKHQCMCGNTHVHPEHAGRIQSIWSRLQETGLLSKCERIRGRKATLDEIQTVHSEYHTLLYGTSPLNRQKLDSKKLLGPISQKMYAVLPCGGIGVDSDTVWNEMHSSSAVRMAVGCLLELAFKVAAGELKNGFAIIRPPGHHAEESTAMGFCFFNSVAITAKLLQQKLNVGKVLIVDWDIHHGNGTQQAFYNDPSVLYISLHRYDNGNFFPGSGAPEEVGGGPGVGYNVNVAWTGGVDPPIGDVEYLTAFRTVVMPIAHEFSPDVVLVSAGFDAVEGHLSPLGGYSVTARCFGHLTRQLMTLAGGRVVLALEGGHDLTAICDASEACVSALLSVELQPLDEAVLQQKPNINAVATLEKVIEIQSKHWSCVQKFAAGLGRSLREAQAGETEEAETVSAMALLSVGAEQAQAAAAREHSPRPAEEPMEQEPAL

SMILES: COc1cc2nc(-c3cc(C)oc3C)cc(NCC3CCN(c4ncc(C(=O)NO)cn4)CC3)c2cc1OC [CM-1758, 2-[4-[[[2-(2,5-dimethyl-3-furyl)-6,7-dimethoxy-4-quinolyl]amino]methyl] -1-piperidyl]pyrimidine-5-carbohydroxamic acid]
- DNA damage (γ-H2AX) [1]: do not induced DNA damage
- 5mC level (dot blot) [2]: no changes
- CD11b in blood samples ([3]; MV4-11 i.v., 10 mg/kg i.p.): statistically significant increase in CD11b
- overall survival (OS) ([3]; MV4-11 i.v., 10 mg/kg i.p., 5 days on/2 off, 7 weeks): increased overall survival
- body weight of mice ([3]; day 20, in g (unit assumed)): 25 and 24.9 and 24 and 26.8 and 24.5 and 23.3 and 20.4 and 22.9 and 24.6 and 23.8 and 22.8 and 23
- body weight of mice ([3]; day 23, in g (unit assumed)): 23.9 and 24.6 and 28.5 and 27.5 and 23.5 and 23 and 19.4 and 23.1 and 23.8 and 22.2 and 22.5 and 22.4
- body weight of mice ([3]; day 25): 23.7 (2×) and 23.8 and 27.9 and 26.9 and 23.2 and 22.7 and 19.6 and 22.8 and 21.9 and 22.2 and 22
- body weight of mice ([3]; day 28): 23.6 (2×) and 23.8 and 26.5 and 26.6 and 23.2 and 23.1 and 18.9 and 21.4 and 21.2 and 21.7
- body weight of mice ([3]; day 30): 23.1 and 23.9 and 25.7 and 26.6 and 22.3 and 22.6 (2×) and 18.6 and 21 (2×) and 22.1
- body weight of mice ([3]; day 31): 23.5 and 22.8 and 25.9 and 26.7 and 22.3 and 22.1 (2×) and 18.3 and 21.8 and 21.3 and 17.9
- body weight of mice ([3]; day 35, in g (unit assumed)): 24 and 22.9 and 26.1 and 26.8 and 22.4 and 23.1 and 19.4 and 22.5 and 22 and 22.1
- body weight of mice ([3]; day 37): 23.4 and 24.4 (2×) and 27.2 and 26.3 and 22.9 and 18.3 and 23.1 and 22 and 22.7
- body weight of mice ([3]; day 42, in g (unit assumed)): 25.8 and 24.7 and 28.1 and 26.1 and 23.8 and 24.5 and 20.5 and 23.3
- body weight of mice ([3]; day 44, in g (unit assumed)): 26 and 25.3 and 28.3
- CD11b levels in blood samples ([3]; mice engrafted intravenously with MV4-11 cells, individual mice (Fig 3E)): 26.3% and 16.2% and 21.1% and 11.9% and 23.1% and 11% and 20.5%
- Survival time (Kaplan-Meier, event = 1) ([3]; mice engrafted with MV4-11 cells intravenously, individual mice (Fig 3D)): 25 days and 32 days and 46 days and 48 days and 53 days and 57 days
- overall survival (OS) ([4]; MOLM-13 i.v., 10 mg/kg i.p., 5 days on/2 off, 2 weeks): not having observed an increase in OS
- Body weight ([4]; day 4): 25.4 and 23.9 (2×) and 24.4 and 22.7 (2×) and 23.8 and 21.5 and 23 and 21.9
- Body weight ([4]; day 6): 25.4 and 23 and 24.3 and 22 and 22.6 and 21.4 and 22.8 (2×) and 22.1 and 22.4
- Body weight ([4]; day 8, in g (unit assumed)): 24.7 and 22.7 and 23.8 and 22.6 and 21.8 and 21.7 and 22.1 and 21.9 and 22 and 22.8
- Body weight ([4]; day 11): 24.3 and 22.3 and 23.6 and 21.6 and 21.7 (2×) and 20.7 and 21 and 21.5 and 22.6
- Body weight ([4]; day 13): 24.3 and 22.6 and 23.5 and 21.5 (2×) and 22.1 and 21.4 and 21.9 and 21.7 and 22.4
- IC50 [5]: 29 nM
- inhibition at 10 µM ([5]; 10 µM): 98%
- IC50 [6]: 270 nM
- inhibition at 10 µM ([6]; 10 µM): 98%
- CC50 at 72 h [7]: 2410 nM
- hERG hill slope [8]: 0.99
- IC50 ([8]; read-out: hERG binding: IC50): 4890 nM
